The text below walks through data of patent US7501541B2, “Malonamides as orexin antagonists” (Hoffmann-La Roche Inc., priority 2007, dated 2009).

No end group written: not given here.

In test [1] the target is T1, human orexin-2 (hOX2) receptors (Homo sapiens, UniProt O43614).
T1 construct: expressed in transfected cells
T1 sequence (O43614 1-444): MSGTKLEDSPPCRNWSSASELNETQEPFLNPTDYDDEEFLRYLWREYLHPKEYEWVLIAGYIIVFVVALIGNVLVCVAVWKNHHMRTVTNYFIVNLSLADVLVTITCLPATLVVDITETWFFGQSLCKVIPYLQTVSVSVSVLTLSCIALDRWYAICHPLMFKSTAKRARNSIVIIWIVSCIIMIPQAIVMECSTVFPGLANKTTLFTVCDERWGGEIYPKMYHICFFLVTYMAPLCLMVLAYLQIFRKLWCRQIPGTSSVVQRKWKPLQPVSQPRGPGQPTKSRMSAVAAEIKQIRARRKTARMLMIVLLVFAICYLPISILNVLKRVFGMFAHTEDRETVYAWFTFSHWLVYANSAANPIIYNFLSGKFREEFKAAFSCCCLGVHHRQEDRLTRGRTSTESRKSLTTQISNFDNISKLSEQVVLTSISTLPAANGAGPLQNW
Nature of the test: Intracellular Ca2+ mobilization assay (FLIPR), CHO(dHFr-) cells expressing hOX2. The class given is cell-based. Conditions: antagonism of orexin-A at EC80; Kb=IC50/(1+[A]/EC50); CHO(dHFr-)-OX2R cells. The method, then:
(§1) Intracellular Ca^2+ Mobilization Assay
(§2) The Chinese Hamster Ovary (dHFr-) mutant cell line stably expressing human orexin-1 (hOX1) or human orexin-2 (hOX2) receptors were maintained in Dulbecco's Modified Eagle Medium (1X) with GlutaMax™ 1, 4500 mg/L D-Glucose and Sodium Pyruvate (Catalog No. 31966-021, Invitrogen, Carlsbad, Calif.), 5% dialyzed fetal calf serum (Catalog No. 26400-044), 100 μg/ml penicillin and 100 μg/ml streptomycin. The cells were seeded at 5×10^4 cells/well in the poly-D-lysine treated, 96-well, black/clear-bottomed plates (Catalog No. BD356640, BD Biosciences, Palo Alto, Calif.). 24 h later, the cells were loaded for 1 h at 37° C. with 4 μM Flou-4 acetoxymethyl ester (Catalog No. F-14202, Molecular Probes, Eugene, Oreg.) in FLIPR buffer (1×HBSS, 20 mM HEPES, 2.5 mM Probenecid). Hanks' Balanced Salt Solution (HBSS) (10×) (catalog No. 14065-049) and HEPES (1M) (catalog No. 15630-056) were purchased from Invitrogen, Carlsbad, Calif. Probenecid (250 mM) (catalog No. P8761) was from Sigma, Buchs, Switzerland. The cells were washed five times with FLIPR buffer to remove excess dye and intracellular calcium mobilization, [Ca^2+]i were measured using a Fluorometric Imaging Plate Reader (FLIPR-96, Molecular Devices, Menlo Park, Calif.) as described previously (Malherbe et al., Mol. Pharmacol., 64, 823-832, 2003). Orexin A (catalog No. 1455, Toris Cookson Ltd, Bristol, UK) was used as agonist. Orexin A ([…] stock solution in DMSO) was diluted in FLIPR buffer +0.1% BSA. The EC50 and EC80 values of orexin-A were measured daily from standard agonist concentration-response curves in CHO(dHFr-)-OX1R and -OX2R cell lines. All compounds were dissolved in 100% DMSO. Inhibition curves were determined by addition of 11 concentrations (0.0001-10 μM) of inhibitory compounds and using EC80 value of orexin-A as agonist (a concentration which gave 80% of max agonist response, determined daily). The antagonists were applied 25 min (incubation at 37° C.) before the application of the agonist. Responses were measured as peak increase in fluorescence minus basal, normalized to the maximal stimulatory effect induced by EC80 value of orexin-A or orexin-B. Inhibition curves were fitted according to the Hill equation: y=100/(1+(x/IC50)^nH), where nH=slope factor using Excel-fit 4 software (Microsoft). Kb values were calculated according to the following equation Kb=IC50/(1+[A]/EC50) where A is the concentration of agonist added which is very close to agonist EC80 value, and IC50 and EC50 values were derived from the antagonist inhibition and orexin-A or B agonist curves, respectively.

The target of test [2] is T2, human orexin-1 (hOX1) receptors (Homo sapiens, UniProt O43613).
T2 construct: expressed in transfected cells
T2 sequence (O43613 1-425): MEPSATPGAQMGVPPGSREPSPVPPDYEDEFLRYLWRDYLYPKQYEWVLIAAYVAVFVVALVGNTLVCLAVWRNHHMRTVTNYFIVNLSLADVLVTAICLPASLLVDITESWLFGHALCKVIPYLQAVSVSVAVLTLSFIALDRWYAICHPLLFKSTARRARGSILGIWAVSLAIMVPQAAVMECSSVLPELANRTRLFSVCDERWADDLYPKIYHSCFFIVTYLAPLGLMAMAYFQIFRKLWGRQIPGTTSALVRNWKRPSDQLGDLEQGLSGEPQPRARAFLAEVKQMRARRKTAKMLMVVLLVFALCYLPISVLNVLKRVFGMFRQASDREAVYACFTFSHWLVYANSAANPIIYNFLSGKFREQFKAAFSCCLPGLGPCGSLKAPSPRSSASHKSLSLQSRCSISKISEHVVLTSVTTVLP
Nature of the test: Intracellular Ca2+ mobilization assay (FLIPR), CHO(dHFr-) cells expressing hOX1. The test is classed as cell-based. Conditions: antagonism of orexin-A at EC80; Kb=IC50/(1+[A]/EC50); CHO(dHFr-)-OX1R cells. The method, then: as §1, §2

The test system of a further test is REM sleep. Conditions: rat, icv administration (Piper et al., 2000); cited from earlier work.

As for `CNC(=O)C(C(=O)N(CCc1ccc(C(F)(F)F)cc1)c1ccc(OC)c(OC)c1)c1ccccc1` (stereo not drawn) [Example 1, N-(3,4-Dimethoxy-phenyl)-N′-methyl-2-phenyl-N-[2-(4-trifluoromethyl-phenyl)-ethyl]-malonamide], the Kb (commonly the equilibrium dissociation constant of an antagonist, usually derived from a functional assay) in test [1] was 0.0255 µM; in test [2] it was 0.16 µM.
As for `COc1ccc(N(CCc2ccc(C(F)(F)F)cc2)C(=O)C(C(N)=O)c2ccccc2)cc1OC` (stereo not drawn) [Example 2, N-(3,4-Dimethoxy-phenyl)-2-phenyl-N-[2-(4-trifluoromethyl-phenyl)-ethyl]-malonamide], the Kb in test [1] turned out to be 0.0172 µM; in test [2], 0.127 µM.
In test [1], `CCCCNC(=O)C(C(=O)N(CCc1ccc(C(F)(F)F)cc1)c1ccc(OC)c(OC)c1)c1ccccc1` (stereo not drawn) [Example 3, N-Butyl-N′-(3,4-dimethoxy-phenyl)-2-phenyl-N′-[2-(4-trifluoromethyl-phenyl)-ethyl]-malonamide] displayed a Kb of 0.0419 µM.
Regarding `COCCNC(=O)C(C(=O)N(CCc1ccc(C(F)(F)F)cc1)c1ccc(OC)c(OC)c1)c1ccccc1` (stereo not drawn) [Example 5, N-(3,4-Dimethoxy-phenyl)-N′-[2-methoxy-ethyl)-2-phenyl-N-[2-(4-trifluoromethyl-phenyl)-ethyl]-malonamide], the results for the Kb in test [1] and in test [2] were 0.0217 µM and 0.229 µM, respectively.
For `COc1ccc(N(CCc2ccc(C(F)(F)F)cc2)C(=O)C(C(=O)NCc2ccc(C)cc2)c2ccccc2)cc1OC` (stereo not drawn) [Example 13, N-(3,4-Dimethoxy-phenyl)-N′-(4-methyl-benzyl)-2-phenyl-N-[2-(4-trifluoromethyl-phenyl)-ethyl]-malonamide], the figures for the Kb in test [1] and in test [2] were 0.0968 µM and 0.218 µM, respectively.
For `COc1ccc(N(CCc2ccc(C(F)(F)F)cc2)C(=O)C(C(=O)N(C)CCc2ccccc2)c2ccccc2)cc1OC` (stereo not drawn) [Example 14, N-(3,4-Dimethoxy-phenyl)-N′-methyl-N′-phenethyl-2-phenyl-N-[2-(4-trifluoromethyl-phenyl)-ethyl]-malonamide] the same measures were 0.0141 µM and 0.234 µM.
Consider `COc1ccc(N(CCc2ccc(C(F)(F)F)cc2)C(=O)C(C(=O)N(C)Cc2ccccc2)c2ccccc2)cc1OC` (stereo not drawn) [Example 15, N-Benzyl-N′-(3,4dimethoxy-phenyl)-N-methyl-2-phenyl-N′-[2-(4-trifluoromethyl-phenyl)-ethyl]-malonamide], for which the Kb in test [1] was found to be 0.0428 µM; in test [2] it was 0.166 µM.
The matching figures for `COc1ccc(N(CCc2ccc(C(F)(F)F)cc2)C(=O)C(C(=O)Nc2ccc(F)cc2)c2ccccc2)cc1OC` (stereo not drawn) [Example 16, N-(3,4-Dimethoxy-phenyl)-N′-(4-fluoro-phenyl)-2-phenyl-N-[2-(4-trifluoromethyl-phenyl)-ethyl]-malonamide]: 0.0817 µM and 0.252 µM.
Take `CCNC(=O)C(C(=O)N(CCc1ccc(C(F)(F)F)cc1)c1ccc(OC)c(OC)c1)c1ccccc1` (stereo not drawn) [Example 17, N-(3,4-Dimethoxy-phenyl)-N′-ethyl-2-phenyl-N-[2-(4-trifluoromethyl-phenyl)-ethyl]-malonamide]: the figures for the Kb in test [1] and in test [2] were 0.0299 µM and 0.191 µM, respectively.
For `COc1ccc(N(CCc2ccc(C(F)(F)F)cc2)C(=O)C(C(=O)NC2CC2)c2ccccc2)cc1OC` (stereo not drawn) [Example 18, N-Cyclopropyl-N′-(3,4-dimethoxy-phenyl)-2-phenyl-N′-[2-(4-trifluoromethyl-phenyl)-ethyl]-malonamide] the same measures were 0.0197 µM and 0.199 µM.
The matching figures for `CCCNC(=O)C(C(=O)N(CCc1ccc(C(F)(F)F)cc1)c1ccc(OC)c(OC)c1)c1ccccc1` (stereo not drawn) [Example 19, N-(3,4-Dimethoxy-phenyl)-2-phenyl-N′-propyl-N-[2-(4-trifluoromethyl-phenyl)-ethyl]-malonamide]: 0.0523 µM and 0.245 µM.
For the compound `COc1ccc(N(CCc2ccc(C(F)(F)F)cc2)C(=O)C(C(=O)NCC2CC2)c2ccccc2)cc1OC` (stereo not drawn) [Example 20, N-Cyclopropylmethyl-N′-(3,4-dimethoxy-phenyl)-2-phenyl-N′-[2-(4-trifluoromethyl-phenyl)-ethyl]-malonamide], the Kb in test [1] came out at 0.0468 µM; in test [2] it was 0.292 µM.
For `COc1ccc(N(CCc2ccc(C(F)(F)F)cc2)C(=O)C(C(=O)NCC(F)F)c2ccccc2)cc1OC` (stereo not drawn) [Example 21, N-(2,2-Difluoro-ethyl)-N′-(3,4-diemthoxy-phenyl)-2-phenyl-N′-[2-(4-trifluoromethyl-phenyl)-ethyl]-malonamide] the same measures were 0.0278 µM and 0.173 µM.
Take `COc1ccc(N(CCc2ccc(C(F)(F)F)cc2)C(=O)C(C(=O)Nc2cccnc2)c2ccccc2)cc1OC` (stereo not drawn) [Example 22, N-(3,4-Dimethoxy-phenyl)-2-phenyl-N′-pyridin-3-yl-N-[2-(4-trifluoromethyl-phenyl)-ethyl]-malonamide]: the Kb stood at 0.0838 µM in test [1] and 0.439 µM in test [2].
For the compound `COc1ccc(N(CCc2ccc(C(F)(F)F)cc2)C(=O)C(C(=O)NC2CCOCC2)c2ccccc2)cc1OC` (stereo not drawn) [Example 23, N-(3,4-Dimethoxy-phenyl)-2-phenyl-N′-(tetrahydro-pyran-4-yl)-N-[2-(4-trifluoromethyl-phenyl)-ethyl]-malonamide], the Kb came to 0.023 µM in test [1] and 0.238 µM in test [2].
For `COc1ccc(N(CCc2ccc(C(F)(F)F)cc2)C(=O)C(C(=O)NCc2cccnc2)c2ccccc2)cc1OC` (stereo not drawn) [Example 24, N-(3,4-Dimethoxy-phenyl)-2-phenyl-N′-pyridin-3-ylmethyl-N-[2-(4-trifluoromethyl-phenyl)-ethyl]-malonamide] the same measures were 0.245 µM and 0.245 µM.
Take `COc1cc(N(CCc2ccc(C(F)(F)F)cc2)C(=O)C(C(=O)N(C)C)c2ccccc2)ccc1Cl` (stereo not drawn) [Example 56, N-(4-Chloro-3-methoxy-phenyl)-N′,N′-dimethyl-2-phenyl-N-[2-(4-trifluoromethyl-phenyl)-ethyl]-malonamide]: the Kb was 0.055 µM in test [1] and 0.295 µM in test [2].
With `COc1ccc(N(CCc2ccc(C(F)(F)F)cc2)C(=O)C(C(=O)N(C)C)c2ccccc2)cc1Cl` (stereo not drawn) [Example 58, N-(3-Chloro-4-methoxy-phenyl)-N′,N′-dimethyl-2-phenyl-N-[2-(4-trifluoromethyl-phenyl)-ethyl]-malonamide], the Kb in test [1] is 0.0572 µM; in test [2], 0.723 µM.
Turning to “OX-A: orexin-A/hypocretin1, hypothalamic neuropeptide of 33 amino acids, agonist of OX1R and OX2R (QPLPDCCRQKTCSCRLYELLHGAGNHAAGILTL; ends and bridges not checked; cysteine pairing not given here; UniProt O43612 34-66, looked up)”, the “reduces total REM sleep” value in the test on REM sleep was 84%.
